According to patent US20180360855A1, “THE FORMULATION COMPRISING PHOSPHOMYCINE AND ASCORBIC ACID FOR THE TREATMENT OF BACTERIAL URINARY SYSTEM INFECTIONS” (priority 2015, published 2018):

Experiments:
susceptible bacteria = conditions: cited from earlier work
[1] = pH of solutions of Phosphomycine Trometamol with and without ascorbic acid in water; type: physicochemical

## C[C@@H]1O[C@@H]1P(=O)(O)O [Phosphomycine]
Susceptible bacteria; in the presence of Alkali pH, glycose, phosphate, and sodium chloride
  efficiency in vitro depending on environmental conditions: reduced
Susceptible bacteria; in vitro studies
  time in which efficiency on susceptible bacteria is shown: 30 min

## C[C@@H]1O[C@@H]1P(=O)(O)O [Phosphomycine Trometamol, Phosphomycine trometamol]
[1]; 5.631 g Phosphomycine Trometamol (+ 1.0 g ascorbic acid) in 50 ml water
  pH in 50 ml water: 3.608
[1]; 5.631 g Phosphomycine Trometamol (+ 1.0 g ascorbic acid) in 100 ml water
  pH in 100 ml water: 3.743
[1]; 5.631 g Phosphomycine Trometamol (+ 1.0 g ascorbic acid) in 150 ml water
  pH in 150 ml water: 3.824
